# Measured values from US8664217B2, “Benzodiazepine compound and pharmaceutical composition” (Otsuka Pharmaceutical Co., Ltd., priority 2008, dated 2014).
# Where a name gives a salt, the structure may show the parent alone.
# Molecular target: T1, human GIRK1/4 channels (Homo sapiens, UniProt P48544+P48549)
# T1 construct: Full-length human GIRK1 cDNA was cloned from HuH cell- and HeLa cell-derived cDNA libraries; Full-length GIRK4 cDNA was amplified from a human heart cDNA library; expressed in transfected cells; host or cells: FLP-IN-CHO cells (Invitrogen)
# T1 sequence (P48549 1-501): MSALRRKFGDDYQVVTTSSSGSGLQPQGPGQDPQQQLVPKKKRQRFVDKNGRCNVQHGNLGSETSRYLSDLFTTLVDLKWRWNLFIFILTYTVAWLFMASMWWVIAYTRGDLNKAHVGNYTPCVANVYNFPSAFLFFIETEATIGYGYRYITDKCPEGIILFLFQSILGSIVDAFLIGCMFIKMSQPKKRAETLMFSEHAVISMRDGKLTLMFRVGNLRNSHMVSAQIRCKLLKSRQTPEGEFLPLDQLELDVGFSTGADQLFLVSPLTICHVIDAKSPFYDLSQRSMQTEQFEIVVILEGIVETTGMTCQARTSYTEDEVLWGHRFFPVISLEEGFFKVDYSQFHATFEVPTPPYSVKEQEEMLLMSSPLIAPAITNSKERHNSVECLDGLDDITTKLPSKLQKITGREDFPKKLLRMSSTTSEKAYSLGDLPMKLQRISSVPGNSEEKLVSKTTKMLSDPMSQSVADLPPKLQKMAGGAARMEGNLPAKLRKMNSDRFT
# T1 sequence (P48544 1-419): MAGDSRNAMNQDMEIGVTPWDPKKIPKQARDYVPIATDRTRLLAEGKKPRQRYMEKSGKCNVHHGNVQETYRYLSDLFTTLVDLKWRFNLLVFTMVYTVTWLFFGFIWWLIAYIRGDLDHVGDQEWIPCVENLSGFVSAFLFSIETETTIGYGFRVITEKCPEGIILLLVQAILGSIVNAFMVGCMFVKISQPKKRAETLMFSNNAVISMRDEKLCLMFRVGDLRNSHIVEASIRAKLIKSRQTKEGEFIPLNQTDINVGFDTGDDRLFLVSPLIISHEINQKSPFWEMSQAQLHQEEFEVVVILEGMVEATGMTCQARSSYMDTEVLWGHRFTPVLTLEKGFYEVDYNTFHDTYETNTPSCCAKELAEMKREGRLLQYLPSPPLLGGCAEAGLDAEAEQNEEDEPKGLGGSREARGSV
# Assay: Measurement of human GIRK1/4 channel current by whole-cell patch clamp method (human GIRK1/4-expressing CHO cell line)
# Format: cell-based
# Settings: whole-cell patch clamp, human GIRK1/4-expressing CHO cells; step end current at −120 mV; test compound 0.1, 1, 10 μM; read-out: GIRK¼ IC50
# Description: (2) Production of CHO Cell Line Expressing Human GIRK1/4
# CHO cell lines stably expressing human GIRK1/4 channels were prepared in the following manner.
# Full-length human GIRK1 cDNA was cloned from HuH cell- and HeLa cell-derived cDNA libraries. Full-length GIRK4 cDNA was amplified from a human heart cDNA library (produced by Clontech Laboratories, Inc.) by PCR using synthetic primers shown in Table 1, and cloned into the Eco-RI restriction enzyme site of pCR-Blunt (produced by Invitrogen Corporation) or into the HincII site of pUC118 (produced by Takara Bio, Inc.).
# The obtained human GIRK1 and GIRK4 cDNA sequences correspond to known sequences (NCBI database: GIRK1 (NM_002239) and GIRK4 (NM_000890) respectively). The obtained GIRK1 and GIRK4 cDNA sequences were cloned into the Eco-RI restriction enzyme site of pCR-Blunt (available from Invitrogen Corporation) or into the HincII site of pUC118 (available from Takara Bio, Inc.). A GIRK4 expression vector was constructed by insertion into the BamHI-XhoI site of pcDNA5/FRT. A GIRK1 expression vector was constructed by insertion into the KpnI-XhoI site of pcDNA3.1(+) or pCAG_neo. FLP-IN-CHO cells (produced by Invitrogen Corporation) were transfected with human GIRK1 and GIRK4 expression vectors by using Lipofectamine 2000 (produced by Invitrogen Corporation) according to the protocol enclosed with the reagent or using an electronic induction method (“Nucleofector Kit-T”, produced by Amaxa). First, the cells transfected with the GIRK4 expression vector were cultured in a 10% serum-containing F12 medium (produced by Sigma) supplemented with 600 μg/ml of hygromycin in an incubator with 5% carbon dioxide at 37° C. Then the cells expressing GIRK4 were transfected with the GIRK1 expression vector and were cultured in 10% serum-containing F12 medium supplemented with 350 μg/ml of G418 and 600 μg/ml of hygromycin in an incubator with 5% carbon dioxide at 37° C. to select GIRK1/4 expressing cell lines. Cell populations whose growth was observed after about 2 weeks were isolated using cloning rings, and the obtained single colonies were proliferated. RNA was extracted from single colonies, and single-stranded cDNA was synthesized by a cDNA synthesis kit (produced by Invitrogen Corporation), and the amount of expression was quantified at the mRNA level by real-time PCR (Applied Biosystems, Ltd.). Finally, the expressed current was analyzed by patch clamp method described below. The cell lines expressing a current of 500 pA or more per cell were selected as channel-expressing cell lines for activity measurement by patch clamping method.
# (4) Measurement of Ion Channel Current by Patch Clamp Method (Human GIRK1/4-Expressing CHO-K1 Cell Line)
# An experiment was carried out using a patch clamp setup at room temperature (20 to 26° C.). A perfusion chamber having a diameter of 20 mm (flow rate: about 5 ml/min) was mounted on the stage of a phase-contrast inverted microscope (produced by Nikon Corporation) placed on a vibration isolation table. A poly-L-lysine (produced by Sigma)-coated coverslip (diameter: 15 mm, produced by Matsunami Glass Ind., Ltd.) on which human GIRK1/4-expressing cells were cultured was placed in the perfusion chamber.
# Hyperpolarizing stimulation pulses were applied and ionic current was recorded using a patch clamp amplifier (EPC-7 or EPC-7 PLUS, manufactured by HEKA) and a personal computer (manufactured by IBM Corp.) in which software for data acquisition and analysis of ion channel current (PULSE 8.77, manufactured by HEKA) was installed. The current was measured in the whole-cell configuration of the patch-clamp technique. The tip (resistance: 2 to 4 MΩ) of a borosilicate glass pipette (produced by Sutter Instrument Co.) was gently placed on the cell membrane by using a three-dimensional mechanical micromanipulator (produced by Shoshin EM Corporation). […] Subsequently, stronger suction was applied to break the cell membrane. […]
row,Compound,IC50
1,"CCN1C(=O)C(C)(C)C(=O)N(C)c2cc(OCCCN(CCc3cccnc3)Cc3ccncc3)ccc21 [Example 8, 1-ethyl-3,3,5-trimethyl-7-{3-[(2-pyridin-3-ylethyl)pyridin-4-ylmethylamino]propoxy}-1,5-dihydrobenzo[b][1,4]diazepine-2,4-dione trihydrochloride]",930 nM
2,"CCCN1C(=O)C(C)(C)C(=O)N(C)c2cc(OCCCN(CCc3cccnc3)Cc3ccncc3)ccc21 [Example 10, 3,3,5-trimethyl-1-propyl-7-{3-[(2-pyridin-3-ylethyl)pyridin-4-ylmethylamino]propoxy}-1,5-dihydrobenzo[b][1,4]diazepine-2,4-dione trihydrochloride]",3600 nM
3,"CCN1C(=O)C(C)(C)C(=O)N(CC)c2cc(OCCCN(CCc3cccnc3)Cc3ccncc3)ccc21 [Example 14, 1,5-diethyl-3,3-dimethyl-7-{3-[(2-pyridin-3-ylethyl)pyridin-4-ylmethylamino]propoxy}-1,5-dihydrobenzo[b][1,4]diazepine-2,4-dione trihydrochloride]",720 nM
4,"CN1C(=O)C(C)(C)C(=O)N(C)c2cc(OCCCN(CCc3cccnc3)Cc3ccncc3)ccc21 [Example 19, 1,3,3,5-tetramethyl-7-{3-[(2-pyridin-3-ylethyl)pyridin-4-ylmethylamino]propoxy}-1,5-dihydrobenzo[b][1,4]diazepine-2,4-dione trihydrochloride]",1400 nM
5,"CCN1C(=O)C(C)(C)C(=O)N(C)c2cc(OCCCN(CCn3ccc4ccccc4c3=O)Cc3ccncc3)ccc21 [Example 23, 1-ethyl-3,3,5-trimethyl-7-(3-{[2-(1-oxo-1H-isoquinolin-2-yl)ethyl]pyridin-4-ylmethylamino}propoxy)-1,5-dihydrobenzo[b][1,4]diazepine-2,4-dione dihydrochloride]",250 nM
6,"CCN1C(=O)C(C)(C)C(=O)N(C)c2cc(OCCCN(CCn3ccc4ccoc4c3=O)Cc3ccncc3)ccc21 [Example 31, 1-ethyl-3,3,5-trimethyl-7-(3-{[2-(7-oxo-7H-furo[2,3-c]pyridin-6-yl)ethyl]pyridin-4-ylmethylamino}propoxy)-1,5-dihydrobenzo[b][1,4]diazepine-2,4-dione dihydrochloride]",2900 nM
7,"CN(CCN(CCCOc1ccc2c(c1)N(C)C(=O)C(C)(C)C(=O)N2C)Cc1ccncc1)C(=O)c1ccccc1 [Example 45, N-methyl-N-(2-{pyridin-4-ylmethyl-[3-(1,3,3,5-tetramethyl-2,4-dioxo-2,3,4,5-tetrahydro-1H-benzo[b][1,4]diazepin-7-yloxy)propyl]amino}ethyl)benzamide dihydrochloride]",2150 nM
8,"Cc1ccccc1CN(CCCOc1ccc2c(c1)N(C)C(=O)C(C)(C)C(=O)N2C)CCc1cccnc1 [Example 50, 1,3,3,5-tetramethyl-7-{3-[(2-methylbenzyl)-(2-pyridin-3-ylethyl)amino]propoxy}-1,5-dihydrobenzo[b][1,4]diazepine-2,4-dione dihydrochloride]",460 nM
9,"CN1C(=O)C(C)(C)C(=O)N(C)c2cc(OCCCN(CCc3cccnc3)Cc3ccnc4ccccc34)ccc21 [Example 51, 1,3,3,5-tetramethyl-7-{3-[(2-pyridin-3-ylethyl)-(quinolin-4-ylmethyl)amino]propoxy}-1,5-dihydrobenzo[b][1,4]diazepine-2,4-dione trihydrochloride]",1500 nM
10,"CCN1C(=O)C(C)(C)C(=O)N(C)c2cc(OCCCN(CCc3cccnc3)Cc3ccncc3C)ccc21 [Example 54, 1-ethyl-3,3,5-trimethyl-7-{3-[(3-methylpyridin-4-ylmethyl)-(2-pyridin-3-ylethyl)amino]propoxy}-1,5-dihydrobenzo[b][1,4]diazepine-2,4-dione trihydrochloride]",970 nM
11,"CCN1C(=O)C(C)(C)C(=O)N(C)c2cc(OCCCN(CCn3c(=O)ccc4ccccc43)Cc3ccncc3)ccc21 [Example 63, 1-ethyl-3,3,5-trimethyl-7-(3-{[2-(2-oxo-2H-quinolin-1-yl)ethyl]pyridin-4-ylmethylamino}propoxy)-1,5-dihydrobenzo[b][1,4]diazepine-2,4-dione]",920 nM
